Key:
MCF7 = assay: Cytotoxicity against human MCF7 cells assessed as cell viability at 20 uM measured after 48 hrs by MTT assay relative to control; assay type: functional; settings: MCF7, 48 h, read-out: Activity
HeLa = assay: Cytotoxicity against human HeLa cells assessed as cell viability at 20 uM measured after 48 hrs by MTT assay relative to control; assay type: functional; settings: read-out: Activity
HepG2 = assay: Cytotoxicity against human HepG2 cells assessed as cell viability at 20 uM measured after 48 hrs by MTT assay relative to control; assay type: functional; settings: HepG2, 48 h, read-out: Activity
HL-60 [1] = assay: Cytotoxicity against human HL60 cells assessed as cell viability at 20 uM measured after 48 hrs by MTT assay relative to control; assay type: functional; settings: HL-60, 48 h, read-out: Activity
HL-60 [2] = assay: Cytotoxicity against human HL60 cells assessed as reduction in cell viability measured after 48 hrs by MTT assay; assay type: functional, cell-based; settings: HL-60, 48 h

Row | Structure (SMILES) | viability at 20 µM (MCF7) [%] | viability at 20 µM (HeLa) [%] | viability at 20 µM (HepG2) [%] | viability at 20 µM (HL-60 [1]) [%] | IC50 (HL-60 [2]) [µM]
1 | CCN(CC)c1ccc2cc(C(=O)NCCCCCCNC(=O)/C=C/c3ccc(OC)cc3)c(=O)oc2c1 | 87.8 | 100 | 76.6 | 99.8 | 
2 | CCN(CC)c1ccc2cc(C(=O)NCCNC(=O)/C=C/c3cc(OC)c(OC)c(OC)c3)c(=O)oc2c1 | 72.4 | 61.4 | 72.9 | 45.5 | 23.3
3 | CCN(CC)c1ccc2cc(C(=O)N3CCN(C(=O)/C=C/c4c(OC)cc(OC)cc4OC)CC3)c(=O)oc2c1 | 94 | 78.2 | 88.7 | 75.3 | 
4 | CCN(CC)c1ccc2cc(C(=O)N3CCN(C(=O)/C=C/c4ccc(OC)cc4)CC3)c(=O)oc2c1 | 98.1 | 81.6 | 98.9 | 85.6 | 
5 | CCN(CC)c1ccc2cc(C(=O)N3CCN(C(=O)/C=C/c4cc(OC)c(OC)cc4OC)CC3)c(=O)oc2c1 | 91.6 | 84.6 | 99.6 | 80.1 | 
6 | CCN(CC)c1ccc2cc(C(=O)NCCCCCCNC(=O)/C=C/c3cc(OC)c(OC)c(OC)c3)c(=O)oc2c1 | 91 | 72.2 | 100 | 43.5 | 
7 | CCN(CC)c1ccc2cc(C(=O)NCCCCNC(=O)/C=C/c3cc(OC)c(OC)c(OC)c3)c(=O)oc2c1 | 93.8 | 74.5 | 93.8 | 56.3 | 
8 | CCN(CC)c1ccc2cc(C(=O)N3CCN(C(=O)/C(=C/c4cc(OC)c(OC)c(OC)c4)c4ccc(OC)c(OC)c4)CC3)c(=O)oc2c1 | 100 | 97.8 | 82.1 | 80.3 | 
9 | CCN(CC)c1ccc2cc(C(=O)NCCNC(=O)/C(=C/c3cc(OC)c(OC)c(OC)c3)c3ccc(C(F)(F)F)cc3)c(=O)oc2c1 | 79.1 | 74 | 98.9 | 54.2 | > 25
10 | CCN(CC)c1ccc2cc(C(=O)NCCNC(=O)/C=C/c3c(OC)cc(OC)cc3OC)c(=O)oc2c1 | 72.1 | 63.9 | 75.4 | 68.9 | > 25
11 | CCN(CC)c1ccc2cc(C(=O)NCCNC(=O)/C=C/c3cc(OC)c(OC)cc3OC)c(=O)oc2c1 | 76.4 | 72.6 | 100 | 48.2 | 22.9
12 | CCN(CC)c1ccc2cc(C(=O)NCCNC(=O)CCc3cc(OC)c(OC)c(OC)c3)c(=O)oc2c1 | 78.2 | 67.4 | 66.8 | 80.4 | > 25
13 | CCN(CC)c1ccc2cc(C(=O)NCCNC(=O)/C=C/c3ccc(OC)cc3)c(=O)oc2c1 | 80.7 | 71.8 | 68.8 | 78.5 | > 25
14 | CCN(CC)c1ccc2cc(C(=O)NCCNC(=O)/C(=C/c3cc(OC)c(OC)c(OC)c3)c3ccc(OC)c(F)c3)c(=O)oc2c1 | 100 | 99.7 | 100 | 67.7 | 15
15 | CCN(CC)c1ccc2cc(C(=O)N3CCN(C(=O)/C=C/c4cc(OC)c(OC)c(OC)c4)CC3)c(=O)oc2c1 | 100 | 82.6 | 97.2 | 74.5 | 
16 | CCN(CC)c1ccc2cc(C(=O)NCCNC(=O)/C(=C/c3cc(OC)c(OC)c(OC)c3)c3ccc(F)cc3)c(=O)oc2c1 | 75.3 | 84.7 | 96 | 68.3 | 18.8
17 | CCN(CC)c1ccc2cc(C(=O)NCCNC(=O)/C(=C/c3cc(OC)c(OC)c(OC)c3)c3ccc(OC)cc3)c(=O)oc2c1 | 75.8 | 75 | 100 | 29.4 | 13.8
18 | CCN(CC)c1ccc2cc(C(=O)NCCCCCCNC(=O)/C(=C/c3cc(OC)c(OC)c(OC)c3)c3ccc(OC)cc3)c(=O)oc2c1 | 100 | 100 | 100 | 82.5 | 
19 | CCN(CC)c1ccc2cc(C(=O)NCCCCNC(=O)/C(=C/c3cc(OC)c(OC)c(OC)c3)c3ccc(OC)cc3)c(=O)oc2c1 | 84.9 | 75 | 100 | 51.3 | 
20 | CCN(CC)c1ccc2cc(C(=O)N3CCN(C(=O)/C(=C/c4cc(OC)c(OC)c(OC)c4)c4ccc(OC)cc4)CC3)c(=O)oc2c1 | 100 | 100 | 100 | 74.3 | 
